Test results published in article PMC3169403 (Acta Crystallographica Section F: Structural Biology and …, 2011).
Like-named read-outs stand apart in the source and are kept apart here.

Biological target: T1, BpGCDH; glutaryl-CoA dehydrogenase from B. pseudomallei (Burkholderia pseudomallei, UniProt Q3JP94)
T1 construct: gene BURPS1710b_3237
Conditions: apo crystal without FAD, pH 7.5, individual soak 10-25 mM

T1 sequence (Q3JP94 1-395 limits assumed): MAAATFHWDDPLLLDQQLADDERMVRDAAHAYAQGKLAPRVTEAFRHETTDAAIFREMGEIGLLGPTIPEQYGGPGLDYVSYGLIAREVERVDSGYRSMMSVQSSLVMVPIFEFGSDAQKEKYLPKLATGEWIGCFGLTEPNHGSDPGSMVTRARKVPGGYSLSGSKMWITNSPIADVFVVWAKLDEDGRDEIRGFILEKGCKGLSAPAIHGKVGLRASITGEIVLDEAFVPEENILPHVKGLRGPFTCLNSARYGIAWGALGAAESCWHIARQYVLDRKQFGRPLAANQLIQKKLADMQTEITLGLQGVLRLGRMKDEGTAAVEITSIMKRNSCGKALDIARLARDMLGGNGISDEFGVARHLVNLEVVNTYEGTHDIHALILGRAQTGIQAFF

Q: With `CN1CCN(C)c2cc(CN)ccc21` [FOL680, (1,4-dimethyl-1,2,3,4-tetrahydroquinoxalin-6-yl)methylamine] as the compound, how does the “X-ray crystal structure (fragment soak)” value (flavin site of FAD, second molecule in substrate site of one protomer, three per tetramer) read?
A: FOL680 occupies the binding site for the flavin ring of the FAD cofactor

Q: Which “X-ray crystal structure (fragment soak)” value (glutaryl (substrate) site, one active site per tetramer) does the source give for `COC(=O)c1cccs1` [FOL544] here?
A: FOL544 (methyl thiophene-2-carboxylate; PDB entry 3d6b)

Q: For `CC(C)n1c(S(=O)(=O)O)nc2ccccc21` [FOL6421, 1-(1-methylethyl)-1H-benzimidazole-2-sulfonate], which “X-ray crystal structure (fragment soak)” value (glutaryl (substrate) site, all four active sites, HEPES also modelled at tetramer interface) is on record?
A: FOL6421 (PDB entry 3gnc) was observed bound in all four active sites of tetrameric BpGCDH
